Assays:
[1] = Stability of cannabinoid entourage and Vitamin E components of the powder concentrate by LCMSMS; type: physicochemical; conditions: powder stored at 21-25° C.
Experimental: At each time period, 0.05 g of powder was dissolved in 10 ml-15 of ethanol, diluted to fall within the analytical range, and injected into the LCMSMS for analysis.

[2] = Stability of cannabinoid compounds and Vitamin E components in Beverage 2 (AB Red) by LCMSMS; type: physicochemical; conditions: stored at 8° C.

C=C(C)[C@@H]1CCC(C)=C[C@H]1c1c(O)cc(CCC)cc1O [CBDV, cannabidivarin]
0.198 µg/mL: Stability of Plant-Derived Cannabinoid Compounds in AB Red ([2]; 5 days) | Stability of Plant-Derived Cannabinoid Compounds in AB Red ([2]; 8 days) | Stability of Plant-Derived Cannabinoid Compounds in AB Red ([2]; 12 days)
0.050 mg/g powder: Stability of Plant-Derived Cannabinoid Compounds in Powder Concentrate ([1]; 0 days) | Stability of Plant-Derived Cannabinoid Compounds in Powder Concentrate ([1]; 5 days) | Stability of Plant-Derived Cannabinoid Compounds in Powder Concentrate ([1]; 10 days) | Stability of Plant-Derived Cannabinoid Compounds in Powder Concentrate ([1]; 15 days) | Stability of Plant-Derived Cannabinoid Compounds in Powder Concentrate ([1]; 23 days) | Stability of Plant-Derived Cannabinoid Compounds in Powder Concentrate ([1]; 26 days) | Stability of Plant-Derived Cannabinoid Compounds in Powder Concentrate ([1]; 60 days) | Stability of Plant-Derived Cannabinoid Compounds in Powder Concentrate ([1]; 90 days) | Stability of Plant-Derived Cannabinoid Compounds in Powder Concentrate ([1]; 120 days) | Stability of Plant-Derived Cannabinoid Compounds in Powder Concentrate ([1]; 180 days) | Stability of Plant-Derived Cannabinoid Compounds in Powder Concentrate ([1]; 360 days)
0.048 mg/g powder: Stability of Plant-Derived Cannabinoid Compounds in Powder Concentrate ([1]; 3 days) | Stability of Plant-Derived Cannabinoid Compounds in Powder Concentrate ([1]; 19 days) | Stability of Plant-Derived Cannabinoid Compounds in Powder Concentrate ([1]; 570 days)
0.051 mg/g powder: Stability of Plant-Derived Cannabinoid Compounds in Powder Concentrate ([1]; 1 days) | Stability of Plant-Derived Cannabinoid Compounds in Powder Concentrate ([1]; 2 days) | Stability of Plant-Derived Cannabinoid Compounds in Powder Concentrate ([1]; 8 days) | Stability of Plant-Derived Cannabinoid Compounds in Powder Concentrate ([1]; 11 days) | Stability of Plant-Derived Cannabinoid Compounds in Powder Concentrate ([1]; 12 days) | Stability of Plant-Derived Cannabinoid Compounds in Powder Concentrate ([1]; 17 days) | Stability of Plant-Derived Cannabinoid Compounds in Powder Concentrate ([1]; 18 days) | Stability of Plant-Derived Cannabinoid Compounds in Powder Concentrate ([1]; 24 days) | Stability of Plant-Derived Cannabinoid Compounds in Powder Concentrate ([1]; 30 days) | Stability of Plant-Derived Cannabinoid Compounds in Powder Concentrate ([1]; 150 days) | Stability of Plant-Derived Cannabinoid Compounds in Powder Concentrate ([1]; 270 days) | Stability of Plant-Derived Cannabinoid Compounds in Powder Concentrate ([1]; 420 days) | Stability of Plant-Derived Cannabinoid Compounds in Powder Concentrate ([1]; 480 days)
0.049 mg/g powder: Stability of Plant-Derived Cannabinoid Compounds in Powder Concentrate ([1]; 9 days) | Stability of Plant-Derived Cannabinoid Compounds in Powder Concentrate ([1]; 16 days) | Stability of Plant-Derived Cannabinoid Compounds in Powder Concentrate ([1]; 22 days) | Stability of Plant-Derived Cannabinoid Compounds in Powder Concentrate ([1]; 29 days) | Stability of Plant-Derived Cannabinoid Compounds in Powder Concentrate ([1]; 210 days) | Stability of Plant-Derived Cannabinoid Compounds in Powder Concentrate ([1]; 300 days) | Stability of Plant-Derived Cannabinoid Compounds in Powder Concentrate ([1]; 390 days) | Stability of Plant-Derived Cannabinoid Compounds in Powder Concentrate ([1]; 450 days) | Stability of Plant-Derived Cannabinoid Compounds in Powder Concentrate ([1]; 510 days)
0.052 mg/g powder: Stability of Plant-Derived Cannabinoid Compounds in Powder Concentrate ([1]; 25 days) | Stability of Plant-Derived Cannabinoid Compounds in Powder Concentrate ([1]; 240 days) | Stability of Plant-Derived Cannabinoid Compounds in Powder Concentrate ([1]; 330 days) | Stability of Plant-Derived Cannabinoid Compounds in Powder Concentrate ([1]; 540 days)
0.194 µg/mL: Stability of Plant-Derived Cannabinoid Compounds in AB Red ([2]; 1 days) | Stability of Plant-Derived Cannabinoid Compounds in AB Red ([2]; 10 days) | Stability of Plant-Derived Cannabinoid Compounds in AB Red ([2]; 15 days) | Stability of Plant-Derived Cannabinoid Compounds in AB Red ([2]; 23 days)
0.199 µg/mL: Stability of Plant-Derived Cannabinoid Compounds in AB Red ([2]; 3 days) | Stability of Plant-Derived Cannabinoid Compounds in AB Red ([2]; 19 days) | Stability of Plant-Derived Cannabinoid Compounds in AB Red ([2]; 25 days) | Stability of Plant-Derived Cannabinoid Compounds in AB Red ([2]; 26 days)
0.195 µg/mL: Stability of Plant-Derived Cannabinoid Compounds in AB Red ([2]; 11 days) | Stability of Plant-Derived Cannabinoid Compounds in AB Red ([2]; 16 days) | Stability of Plant-Derived Cannabinoid Compounds in AB Red ([2]; 17 days) | Stability of Plant-Derived Cannabinoid Compounds in AB Red ([2]; 18 days)
0.200 µg/mL: Stability of Plant-Derived Cannabinoid Compounds in AB Red ([2]; 0 days) | Stability of Plant-Derived Cannabinoid Compounds in AB Red ([2]; 22 days)
0.201 µg/mL: Stability of Plant-Derived Cannabinoid Compounds in AB Red ([2]; 9 days)
0.197 µg/mL: Stability of Plant-Derived Cannabinoid Compounds in AB Red ([2]; 2 days) | Stability of Plant-Derived Cannabinoid Compounds in AB Red ([2]; 24 days)

Reference: patent publication US20260130395A1, “Water Dispersible Botanical Compositions” (Aquila Black Limited, priority 2021, published 2026)
